Consider one compound from PMC11249012 (Journal of Medicinal Chemistry, 2024).

One data set in a line: in vivo. The note with it: BALB/c, mouse, ip.
For the next data set, the system named is 4T1 tumors. Put plainly: 4T1 TNBC model in vivo (primary tumor and lung metastases). Also on record: species or system mouse. The following applies: 4T1 model; for #Surface metastases (lung): vehicle 166. The protocol: As 4T1 cells are aggressively metastatic, we can also assess the antimetastatic activity in the same experiment. All treatments were well tolerated, and, as in the B16-F10 model, none induced weight loss or other signs of stress over the course of the experiment (Figure 7A). Treatments reduced the primary tumor burden to varying degrees.
The antimetastatic activity was determined by counting the number of surface lung metastases of duplicate samples using a stereomicroscope. […] This degree of efficacy is remarkable, as in previous experiments, DK-406 reduced the metastatic burden by ∼2-fold.[30]
Finally, mice were sacrificed, and lungs of 4T1-bearing mice were removed to evaluate the efficiency of treatments on lung metastases.

Another data set addresses T1, HDAC7 (Homo sapiens, UniProt Q8WUI4).
T1 sequence (Q8WUI4 1-952): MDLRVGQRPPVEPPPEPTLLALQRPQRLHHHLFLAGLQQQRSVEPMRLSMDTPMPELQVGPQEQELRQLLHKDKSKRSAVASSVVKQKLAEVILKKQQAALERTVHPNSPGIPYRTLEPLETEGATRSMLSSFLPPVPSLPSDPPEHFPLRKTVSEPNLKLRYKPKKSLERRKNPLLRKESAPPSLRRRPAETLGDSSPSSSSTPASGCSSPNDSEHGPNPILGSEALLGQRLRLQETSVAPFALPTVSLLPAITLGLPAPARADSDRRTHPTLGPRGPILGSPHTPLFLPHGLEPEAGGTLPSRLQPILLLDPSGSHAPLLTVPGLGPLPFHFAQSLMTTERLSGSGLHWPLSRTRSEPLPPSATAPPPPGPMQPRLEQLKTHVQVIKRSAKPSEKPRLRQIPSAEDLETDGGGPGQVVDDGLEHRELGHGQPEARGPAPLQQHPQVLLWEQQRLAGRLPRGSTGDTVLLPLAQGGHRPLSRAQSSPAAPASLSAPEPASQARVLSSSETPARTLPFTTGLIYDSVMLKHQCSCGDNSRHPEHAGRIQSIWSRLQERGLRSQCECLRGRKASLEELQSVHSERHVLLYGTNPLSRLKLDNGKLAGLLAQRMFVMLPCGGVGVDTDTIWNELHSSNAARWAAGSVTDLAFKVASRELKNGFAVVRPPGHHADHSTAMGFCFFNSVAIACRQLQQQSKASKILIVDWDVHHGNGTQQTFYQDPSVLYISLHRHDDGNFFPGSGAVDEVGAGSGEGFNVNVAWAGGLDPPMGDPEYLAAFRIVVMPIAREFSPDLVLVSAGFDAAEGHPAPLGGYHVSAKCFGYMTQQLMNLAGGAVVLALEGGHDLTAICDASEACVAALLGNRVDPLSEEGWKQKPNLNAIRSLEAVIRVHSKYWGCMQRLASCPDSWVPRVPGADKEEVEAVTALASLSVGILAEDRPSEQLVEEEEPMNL
Put plainly: Biochemical assay for HDAC inhibition, HDAC7. The following applies: read-out: IC50 HDAC7; Table 1, purified enzyme; unit inferred.

The subject of data set [1] is macrophage infiltration into 4T1 tumors. Put plainly: Immunofluorescence of macrophages in 4T1 tumors (F4/80, Arg1). In kind it is in vivo, mouse. The procedure:
Inhibition of PD-L1 and CD80/CD86 is directly achieved through the immune checkpoint blockade of their receptors using anti-CTLA-4 and anti-PD-1 antibodies.[69],[70]
Primary tumor tissues were fixed using 4% paraformaldehyde and subsequently dehydrated in sucrose solutions ranging from 10 to 30% for approximately 24 h each. The tissues were then embedded in base molds (Fisherbrand—#22363553) containing an optimal cutting temperature (OCT) compound (Fisher Healthcare—#4585). The tissue blocks were placed immediately on dry ice until the OCT compound solidified, and then they were stored at −80 °C. Prior to IF staining, sections of 5–10 μm were obtained using a Leica CM3050 S cryostat and SuperFrost Plus slides (Fisherbrand—#1255015). The tumor sections were then incubated with blocking buffer [phosphate-buffered saline containing 2% bovine serum albumin, 0.3% Triton X-100, 1% FBS, and 10% goat serum] for 1 h at RT. To detect macrophages in the TME, the sections were incubated with a pan-macrophage rat monoclonal antibody F4/80 (Abcam—#6640) diluted in blocking buffer overnight at 4 °C. Sixteen hours later, tissues were washed 3 times with 100 mM Tris–HCl and then incubated with a secondary goat antirat antibody (Invitrogen—#A11081) for 1 h at RT. […] Subsequently, 4′,6-diamidino-2-phenylindole (DAPI; Invitrogen—#D3571) was used to counterstain the nuclei for 5 min at RT. Finally, the slides were mounted using Fluoromount-G medium (Invitrogen—#00495802) and coverslips (Fisher Scientific—#12545E) and imaged with a Zeiss LSM 710 confocal microscope with ×20 objective. Quantification was carried out by QuPath software (version 0.3.2). F4/80+ macrophages and F4/80+ Arg1+ M2 macrophages were classified based on their fluorescence signal.

Another data set is described as follows: Solubility. Format: physicochemical.

Values after ≈ are worked out from the molar mass of the structure shown.

Consider `CCC(CC)(c1ccc(C(=O)NCCCCC(=O)NO)cc1)c1ccc(OCC(O)C(C)(C)C)c(C)n1` (centres unmarked) [ZG-126, 4-(3-(5-(2-Hydroxy-3,3-dimethylbutoxy)-6-methylpyridin-2-yl)pentan-3-yl)-N-(5-(hydroxyamino)-5-oxopentyl)benzamide], for which the MTD in “in vivo” was found to be 10 mg/kg. Further, the “reduction in tumor burden” value in the data set on 4T1 tumors (BALB/c mice, ZG-126 high dose 5 mg/kg, statistically significant) is approximately 50%. Also, the “#Surface metastases (lung)” value in the data set with 4T1 tumors (1,25D 0.25 μg/kg, SAHA 80 mg/kg, AM-193 0.2 mg/kg, ZG-126 high 5.0 mg/kg) worked out at 47; in the data set with 4T1 tumors (ZG-126 low 1.5 mg/kg), 126. Also, the “reduction of surface lung metastases” value in the data set with 4T1 tumors (high-dose ZG-126 (5 mg/kg)) was approximately 4 fold. Further, the IC50 (commonly the concentration that gives 50% inhibition) at HDAC7 is 55.4 µM. The “reduction of the proportion of M2-polarized immunosuppressive macrophages” value in data set [1] (4T1 tumors) is given as 2 fold. Besides, in data set [1] (Figure 8B), the “total macrophage infiltration into 4T1 tumors (F4/80 staining)” value is given as “significantly reduced”. The “percentage of anti-inflammatory M2 macrophages (Arg1 staining)” value in data set [1] (Figure 8C-E) is recorded as “most efficacious at reducing the percentage of anti-inflammatory M2 macrophages”. Further, the “reduction of total macrophage infiltration” value in data set [1] (TNBC (4T1) tumors) is on record as 2 fold. Besides, the solubility (commonly the dissolved amount per volume that the medium holds) in the data set “Solubility” worked out at 9.19 µg/mL (≈ 17.9 µM).
